For one assay, the system named is HROC24 xenografts. The assay is described as follows: HROC24 xenograft, repetitive local peptide injection. It counts as in vivo, NMRI Foxn1nu mice. Conditions: for Tumor growth inhibition in words / Tumors macroscopically breaking up / ulceration / Tumor size, x-fold increase vs. day 0 (Vt/V0): 1 mg/kg bw local injection every third day, 9 injections, n=5; for Tumor cell apoptosis, M30 CytoDeath staining (cytokeratin 18 cleavage): immunofluorescence of cryopreserved tumor sections; for Tumor size, x-fold increase vs. day 0 (Vt/V0): PBS control: 10.3-fold. As to the method:
Figure 7 In vivo growth kinetics and tumor cell apoptosis of HROC24 tumors in NMRI Foxn1mice with or without local treatment (A) Therapy was performed by repetitive local application of HDPs C7A or C7A-D21K (1 mg/kg bw) every third day (a total of 9 injections) (n=5 per group). Tumor-carrying control animals received either equivalent volumes of peptide NK11 or saline (n=5 per group). Tumor volumes are given as x-fold increase vs. day 0 (Vt/V0) (start of treatment) ± SD. *p<0.05 vs. PBS. (B) Representative immunofluorescence staining of apoptotic cells within HROC24 tumors. Cryopreserved tumor sections were stained with anti-M30 CytoDeath antibody, followed by anti-mouse IgG FITC antibody and nuclear DAPI as described in material and methods.
Experiments were performed on female 8–10-week old NMRI Foxn1^nu mice (Charles River, Sulzfeld, Germany) weighting 18-20 g. All animals were fed standard laboratory chow and given free access to water. Trials were performed in accordance with the German legislation on protection of animals and the Guide for the Care and Use of Laboratory Animals (Institute of Laboratory Animal Resources, National Research Council; NIH Guide, vol.25, no.28, 1996). NMRI Foxn1^nu mice were challenged with 5 × 10^6 HROC24 cells. Mice with established subcutaneous (s.c.) tumors received repetitive local injections of peptide C7A or C7A-D21K (1mg/kg bw, dissolved in 50 μl) every third day (a total of 9 injections) (n=5 per group). As control, tumor-carrying mice either received NK11 (1mg/kg bw, dissolved in 50 μl) or saline (50μl volume, n=5 per group). Tumor growth was controlled three times a week at time point of HDP injection and tumor volume was estimated according to the formula: V= width² * length * 0.52.
Tumor carrying mice were sacrificed at day 28 or when they became moribund before the tumor volume reached 2.000 mm³. At the end of each experiment, tumors, blood and spleens were collected from the animals of all groups for further analysis.
To study apoptotic cell death in vivo, 4 μm sections of HDP-treated and control tumors were mounted on poly-L-lysine-coated-slides. Following fixation in ice-cold methanol and blocking with 2% BSA (1h), cells were incubated with mouse anti-M30 CytoDeath antibody according to the manufacturer's instructions (Roche, Mannheim, Germany). A FITC-labeled anti-mouse IgG antibody was used as secondary antibody (Dako Envision Link, Hamburg, Germany). Cell nuclei were stained with DAPI and slides were embedded in mounting medium (Dako). Apoptotic cells were detected using a fluorescence microscope (Olympus, Münster, Germany).

Assay [1] in a line: FRET spectroscopy probe dilution assay, membrane intercalation. The class given is binding. Conditions: NBD-PE/rhodamine-PE, peptide 0.2-0.8 μM, 20 mM HEPES 150 mM NaCl pH 7.4, 37°C. As to the method:
FRET spectroscopy served as a sensitive tool to detect lipid dependence of the membrane interaction of antimicrobial peptides. For this, all peptides were added to liposomes consisting of zwitterionic PC alone, of a mixture of PC and of negatively charged PS, as well as of pure PS (Figure 1). All lipid vesicles were doped with donor and acceptor dyes, peptides were added, and the emission intensities of both dyes were monitored over time. An increase of the fluorescence intensity of the donor (IDonor) and a simultaneous decrease of the fluorescence intensity of the acceptor dye (IAcceptor), i.e. a reduced FRET efficacy, indicated an increase in the overall mean distance between labeled phospholipids, and corresponded to an insertion of peptides into the lipid bilayer. For clarity, the IDonor/IAcceptor ratio is shown (Figure 1).
Figure 1 FRET spectroscopy. (A-C) Binding to and insertion of peptide C7A-D21K into phospholipid membranes (A) C7A-D21K was added at time point 50 s to liposomes (10 μM) consisting of pure PC, (B) a 90:10 molar mixture of PC:PS, and (C) of pure PS, each doubly doped with the fluorescently labeled FRET pair NBD-PE (donor) and rhodamine-PE (acceptor). Intercalation was monitored by measuring donor and acceptor fluorescence emission intensities. For better visualization only the quotient (IDonor/IAcceptor) is shown. Addition of the peptide solvent alone had no effect (dotted grey line). Peptide concentrations used: 0.2 μM (dotted black line, only in C), 0.4 μM (solid grey line, only in C), and 0.8 μM (solid black line). (D-F) Binding to and insertion of peptides at different concentrations into phospholipid membranes. (A) Peptides were added to liposomes consisting of pure PC, (B) a 90:10 molar mixture of PC:PS, and (C) of pure PS, each doubly doped with the fluorescently labeled phospholipid FRET pair NBD-PE (donor) and rhodamine-PE (acceptor). Intercalation was monitored by measuring donor and acceptor fluorescence intensities. The relative increase of the IDonor/IAcceptor ratio 250 s after peptide addition is shown (Increase of IDonor/IAcceptor (%) = (IDonor/IAcceptor (peptide) - IDonor/IAcceptor (control))*100). Peptide concentrations used: 0.2 μM (open bars), 0.4 μM (grey bars), and 0.8 μM (black bars).
Intercalation of peptides into liposome membranes was determined by FRET spectroscopy applied as a probe dilution assay. Liposomes were prepared by dissolving appropriate lipid mixtures (pure PC, a 90:10 molar mixture of PC:PS, as well as pure PS, each doped with 1% of the donor dye NBD-PE and 1% of the acceptor dye rhodamine-PE) in chloroform and drying them under a gentle stream of nitrogen. The resulting lipid film was dispersed in 20 mM HEPES, 150 mM NaCl, pH 7.4, sonicated for 30 min and subjected to 3-4 temperature cycles from 4 to 60°C with an incubation period of 30 min at each step. Lipid dispersions were stored at 4°C overnight before use. For the assay, donor fluorescence (NBD) was excited at 470 nm, and donor (NBD, ID at 531 nm) as well as acceptor (rhodamine, IA at 593 nm) emission intensities were monitored over time. An increase of the ratio of the donor fluorescence intensity to that of the acceptor fluorescence intensity (IDonor/I^Acceptor) was interpreted as a membrane intercalation event. This ratio depends on the Förster efficiency, therefore a rising value means that the mean distance separation of donor and acceptor dyes is raising. The assay was performed at 37°C.

“KILRGVAKKIMRTFLRRISKDILTGKK [Peptide C7A, NK-2 derivative, Cys7 replaced with Ala]”: in the assay on HROC24 xenografts, the “Tumor growth inhibition in words” value is “most effectiveness”; the “Tumors macroscopically breaking up / ulceration” value is recorded as 4/5; the “Tumor cell apoptosis, M30 CytoDeath staining (cytokeratin 18 cleavage)” value (shortened to “Tumor cell apoptosis”) is on record as “most strongly induced”. The “Membrane intercalation (increase of IDonor/IAcceptor)” value in assay [1] (PC:PS 90:10 liposomes 10 μM) is “slightly impaired”. Also, in assay [1] (pure PS liposomes 10 μM), the “Membrane intercalation (increase of IDonor/IAcceptor)” value is “pronounced”.

In the case of “KILRGVAKKIMRTFLRRISKKILTGKK [Peptide C7A-D21K, C7A with Asp21 substituted by Lys]”, in the assay with HROC24 xenografts, the “Tumor growth inhibition in words” value is listed as “strong growth retardation”; the “Tumors macroscopically breaking up / ulceration” value is recorded as “no ulceration was observed”; the “Tumor size, x-fold increase vs. day 0 (Vt/V0)” value stood at 3.4 fold; the “Tumor cell apoptosis” value is listed as “most strongly induced”. Besides, the “Membrane intercalation (increase of IDonor/IAcceptor)” value in assay [1] (PC:PS 90:10 liposomes 10 μM) was “slightly impaired”. Further, the “Membrane intercalation (increase of IDonor/IAcceptor)” value in assay [1] (pure PS liposomes 10 μM) is recorded as “pronounced”.

Consider “KISKRILTGKK [NK11, non-toxic control peptide based on NK-2, reference compound]”, for which, in the assay with HROC24 xenografts, the “Tumor growth inhibition in words” value is given as “induced tumor growth retardation as well”. For the same sequence, the “Tumor size, x-fold increase vs. day 0 (Vt/V0)” value in the assay on HROC24 xenografts came to 4 fold. Besides, the “Tumor cell apoptosis” value in the assay with HROC24 xenografts was “elevated cytokeratin 18 cleavage”. Further, the figures for the “Membrane intercalation (increase of IDonor/IAcceptor)” value in assay [1] (PC:PS 90:10 liposomes 10 μM), in assay [1] (pure PC liposomes 10 μM) and in assay [1] (pure PS liposomes 10 μM) were “negligible”, “negligible” and “visible”, respectively.
